Reference: US10934302B1, “SHP2 phosphatase inhibitors and methods of use thereof” (Relay Therapeutics, Inc., priority 2018, dated 2021)

molecular target: SHP2 (Homo sapiens (Human), UniProt Q06124); assay: SHP2 allosteric inhibition assay (DiFMUP prompt fluorescence); type: biochemical; settings: 0.25 nM SHP2 activated with 0.5 μM peptide IRS1_pY1172(dPEG8)pY1222; substrate DiFMUP
Sequence (Q06124 whole entry): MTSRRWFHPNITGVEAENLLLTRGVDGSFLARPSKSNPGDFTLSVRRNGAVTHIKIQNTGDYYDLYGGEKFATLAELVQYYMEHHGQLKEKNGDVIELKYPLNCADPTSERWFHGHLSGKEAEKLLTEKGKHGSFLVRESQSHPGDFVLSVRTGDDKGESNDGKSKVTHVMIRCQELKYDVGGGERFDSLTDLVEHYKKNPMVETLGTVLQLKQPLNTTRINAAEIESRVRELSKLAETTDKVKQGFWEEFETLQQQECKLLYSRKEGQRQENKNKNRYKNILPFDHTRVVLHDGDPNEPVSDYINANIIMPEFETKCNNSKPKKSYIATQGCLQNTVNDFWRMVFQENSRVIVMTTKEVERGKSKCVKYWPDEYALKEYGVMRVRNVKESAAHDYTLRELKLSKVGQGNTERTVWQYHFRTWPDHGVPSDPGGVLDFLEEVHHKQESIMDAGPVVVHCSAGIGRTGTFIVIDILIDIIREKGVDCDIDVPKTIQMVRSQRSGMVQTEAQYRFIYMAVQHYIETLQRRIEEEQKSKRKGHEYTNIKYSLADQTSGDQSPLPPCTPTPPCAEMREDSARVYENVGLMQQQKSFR

Cc1nc(N2CCC3(CC2)Cc2ccccc2[C@H]3N)c(CO)nc1-c1cccc(Cl)c1Cl [Example 20, (S)-(3-(1-amino-1,3-dihydrospiro[indene-2,4′-piperidin]-1′-yl)-6-(2,3-dichlorophenyl)-5-methylpyrazin-2-yl)methanol] and Nc1nc(N2CCC3(CC2)Cc2ccccc2[C@@H]3N)cnc1-c1cccc(Cl)c1Cl [Example 21, (3R)-1′-[6-amino-5-(2,3-dichlorophenyl)pyrazin-2-yl]-1,3-dihydrospiro[indene-2,4′-piperidin]-3-amine] cannot be ordered by IC50: at most 50 nM for the first, at most 50 nM for the second.

Nc1nc(N2CCC3(CC2)Cc2ccccc2[C@H]3N)cnc1-c1cccc(Cl)c1Cl [Example 22, (3S)-1′-[6-amino-5-(2,3-dichlorophenyl)pyrazin-2-yl]-1,3-dihydrospiro[indene-2,4′-piperidin]-3-amine] and N[C@@H]1c2ccccc2CC12CCN(c1ncnc3c(-c4cccc(Cl)c4Cl)csc13)CC2 [Example 76] cannot be ordered by IC50: at most 50 nM for the first, at most 50 nM for the second.

Compared with N[C@@H]1c2cccc(F)c2CC12CCN(c1cnc3cn[nH]c3n1)CC2 [Example 23], N[C@H]1c2cccc(F)c2CC12CCN(c1cnc3cn[nH]c3n1)CC2 [Example 24] is lower in IC50: 1000 to 10000 nM for the first, at most 50 nM for the second. The second is the more potent here.

CN(C)C(=O)c1ccc2c(c1)[C@@H](N)C1(CCN(c3cnc4c(N5CCCc6ncccc65)n[nH]c4n3)CC1)C2 [Example 27] and CN(C)C(=O)c1ccc2c(c1)[C@H](N)C1(CCN(c3cnc4c(N5CCCc6ncccc65)n[nH]c4n3)CC1)C2 [Example 28] cannot be ordered by IC50: at most 50 nM for the first, at most 50 nM for the second.

CO[C@H]1C[C@@H](N2CCN(c3n[nH]c4nc(N5CCC6(CC5)Cc5ccccc5C6N)cnc34)c3ccc(C#N)cc32)C1 (some centres unmarked) [Example 32] and CO[C@H]1C[C@H](N2CCN(c3n[nH]c4nc(N5CCC6(CC5)Cc5ccccc5C6N)cnc34)c3ccc(C#N)cc32)C1 (some centres unmarked) [Example 33] cannot be ordered by IC50: at most 50 nM for the first, at most 50 nM for the second.

N#Cc1ccc2c(c1)N([C@H]1C[C@@H](O)C1)CCN2c1n[nH]c2nc(N3CCC4(CC3)Cc3ccccc3C4N)cnc12 (some centres unmarked) [Example 34] and N#Cc1ccc2c(c1)N([C@H]1C[C@H](O)C1)CCN2c1n[nH]c2nc(N3CCC4(CC3)Cc3ccccc3C4N)cnc12 (some centres unmarked) [Example 35] cannot be ordered by IC50: at most 50 nM for the first, at most 50 nM for the second.

N[C@@H]1c2ccccc2CC12CCN(c1cnc3c(N4CCCc5nc(-c6ncco6)ccc54)n[nH]c3n1)CC2 [Example 37] and N[C@@H]1c2ccccc2OC12CCN(c1cnc3c(N4CCCc5nc(-c6ncco6)ccc54)n[nH]c3n1)CC2 [Example 61] cannot be ordered by IC50: at most 50 nM for the first, at most 50 nM for the second.

N#Cc1ccc2c(c1)N(C1(C#N)CC1)CCN2c1n[nH]c2nc(N3CCC4(CC3)Cc3ccccc3[C@H]4N)cnc12 [Example 39] and CN1CCN(c2n[nH]c3nc(N4CCC5(CC4)Cc4ccccc4[C@H]5N)cnc23)c2ccc(C#N)cc21 [Example 43] cannot be ordered by IC50: at most 50 nM for the first, at most 50 nM for the second.

Compared with Cn1cc(-c2ccc3c(n2)CCCN3c2n[nH]c3nc(N4CCC5(CC4)Cc4ccc(F)cc4[C@H]5N)cnc23)cn1 [Example 40], Cn1cc(-c2ccc3c(n2)CCCN3c2n[nH]c3nc(N4CCC5(CC4)Cc4c(F)cccc4[C@H]5N)cnc23)cn1 [Example 42] is lower in IC50: over 10000 nM for the first, at most 50 nM for the second. The second is the more potent here.

CS(=O)(=O)c1cccc2c1CCCN2c1n[nH]c2nc(N3CCC4(CC3)Cc3ccc(F)cc3[C@H]4N)cnc12 [Example 41] and CS(=O)(=O)c1cccc2c1CCCN2c1n[nH]c2nc(N3CCC4(CC3)Cc3c(F)cccc3[C@H]4N)cnc12 [Example 56] cannot be ordered by IC50: at most 50 nM for the first, at most 50 nM for the second.

NC1c2ncccc2CC12CCN(c1cnc3c(N4CCCc5ncccc54)n[nH]c3n1)CC2 (centres unmarked) [Example 45] and N[C@@H]1c2cnccc2CC12CCN(c1cnc3c(N4CCCc5ncccc54)n[nH]c3n1)CC2 [Example 50] cannot be ordered by IC50: at most 50 nM for the first, at most 50 nM for the second.

Cn1cc(-c2ccc3c(n2)CCCN3c2n[nH]c3nc(N4CCC5(CC4)Cc4cccnc4C5N)cnc23)cn1 (centres unmarked) [Example 46] and Cn1cc(-c2ccc3c(n2)CCCN3c2n[nH]c3nc(N4CCC5(CC4)Cc4cccc(F)c4[C@H]5N)cnc23)cn1 [Example 48] cannot be ordered by IC50: at most 50 nM for the first, at most 50 nM for the second.

Cn1ccc2c(c1=O)CCCN2c1n[nH]c2nc(N3CCC4(CC3)Cc3cc(F)ccc3[C@H]4N)cnc12 [Example 52] and Cn1ccc2c(c1=O)CCCN2c1n[nH]c2nc(N3CCC4(CC3)Cc3ccc(F)cc3[C@H]4N)cnc12 [Example 58] cannot be ordered by IC50: at most 50 nM for the first, at most 50 nM for the second.

Cn1ccc2c(c1=O)CCCN2c1n[nH]c2nc(N3CCC4(CC3)Cc3c(F)cccc3[C@H]4N)cnc12 [Example 53] and Cn1ccc2c(c1=O)CCCN2c1n[nH]c2nc(N3CCC4(CC3)Oc3c(F)cccc3[C@H]4N)cnc12 [Example 55] cannot be ordered by IC50: at most 50 nM for the first, at most 50 nM for the second.

N[C@@H]1c2cccc(F)c2OC12CCN(c1cnc3c(N4CCCc5ncccc54)n[nH]c3n1)CC2 [Example 54] and N[C@H]1c2c(F)ccc(F)c2CC12CCN(c1cnc3c(N4CCCc5ncccc54)n[nH]c3n1)CC2 [Example 62] cannot be ordered by IC50: at most 50 nM for the first, at most 50 nM for the second.

Cn1ccc2c(c1=O)CCCN2c1n[nH]c2nc(N3CCC4(CC3)Oc3ccccc3[C@H]4N)cnc12 [Example 57] and Cn1cc(-c2ccc3c(n2)CCCN3c2n[nH]c3nc(N4CCC5(CC4)Oc4ccccc4[C@H]5N)cnc23)cn1 [Example 60] cannot be ordered by IC50: at most 50 nM for the first, at most 50 nM for the second.

CS(=O)(=O)c1cccc2c1CCCN2c1n[nH]c2nc(N3CCC4(CC3)Cc3cccc(F)c3[C@H]4N)cnc12 [Example 59] and N[C@@H]1c2ccccc2CC12CCN(c1cnc3c(N4CCCc5cc(OS(=O)(=O)F)ccc54)n[nH]c3n1)CC2 [Example 65, 1-{6-[(3S)-3-amino-1,3-dihydrospiro[indene-2,4′-piperidin]-1′-yl]-1H-pyrazolo[3,4-b]pyrazin-3-yl}-1,2,3,4-tetrahydroquinolin-6-yl sulfurofluoridate] cannot be ordered by IC50: at most 50 nM for the first, at most 50 nM for the second.

Nc1nccc(Sc2cnc(N3CCC4(CC3)Cc3ccccc3[C@H]4N)cn2)c1Cl [Example 63] and Nc1nccc(Sc2cnc(N3CCC4(CC3)Cc3ccccc3[C@@H]4N)cn2)c1Cl [Example 80, (R)-1′-(5-((2-amino-3-chloropyridin-4-yl)thio)pyrazin-2-yl)-1,3-dihydrospiro[indene-2,4′-piperidin]-1-amine] cannot be ordered by IC50: 50 to 1000 nM for the first, at most 50 nM for the second.

N[C@@H]1c2ccccc2OC12CCN(c1cnc(Oc3ccnc(Cl)c3Cl)cn1)CC2 [Example 64] and N[C@@H]1c2cccc(F)c2OC12CCN(c1cnc(Sc3ccnc(Cl)c3Cl)cn1)CC2 [Example 82, (3R)-1′-{5-[(2,3-dichloropyridin-4-yl)sulfanyl]pyrazin-2-yl}-7-fluoro-3H-spiro[1-benzofuran-2,4′-piperidin]-3-amine] cannot be ordered by IC50: at most 50 nM for the first, at most 50 nM for the second.

N[C@@H]1c2ccccc2CC12CCN(c1cnc3c(-c4ccnc(Cl)c4F)n[nH]c3n1)CC2 [Example 67, (3S)-1′-[3-(2-chloro-3-fluoropyridin-4-yl)-1H-pyrazolo[3,4-b]pyrazin-6-yl]-1,3-dihydrospiro[indene-2,4′-piperidin]-3-amine] and N[C@@H]1c2ccccc2CC12CCN(c1cnc3c(-c4ccnc(Cl)c4Cl)n[nH]c3n1)CC2 [Example 70] cannot be ordered by IC50: at most 50 nM for the first, 50 to 1000 nM for the second.

N[C@@H]1c2ccccc2CC12CCN(c1cnc3c(-c4cccc5ncccc45)n[nH]c3n1)CC2 [Example 68] and N[C@H]1c2ccccc2CC12CCN(c1cnc3c(-c4cccc5ncccc45)n[nH]c3n1)CC2 [Example 69] cannot be ordered by IC50: at most 50 nM for the first, at most 50 nM for the second.

N[C@H]1c2ccccc2CC12CCN(c1cnc3c(-c4ccnc(Cl)c4Cl)n[nH]c3n1)CC2 [Example 71] and Nc1nccc(-c2n[nH]c3nc(N4CCC5(CC4)Cc4ccccc4[C@H]5N)cnc23)c1Cl [Example 79, (3S)-1′-[3-(2-amino-3-chloropyridin-4-yl)-1H-pyrazolo[3,4-b]pyrazin-6-yl]-1,3-dihydrospiro[indene-2,4′-piperidin]-3-amine] cannot be ordered by IC50: at most 50 nM for the first, at most 50 nM for the second.

N[C@@H]1c2ccccc2CC12CCN(c1cnc3c(-c4cc5cc[nH]c5cc4F)n[nH]c3n1)CC2 [Example 72] and N[C@H]1c2ccccc2CC12CCN(c1cnc3c(-c4cc5cc[nH]c5cc4F)n[nH]c3n1)CC2 [Example 73] cannot be ordered by IC50: at most 50 nM for the first, at most 50 nM for the second.

N[C@@H]1c2ccccc2CC12CCN(c1cnc3c(-c4ccncc4F)n[nH]c3n1)CC2 [Example 74] and N[C@H]1c2ccccc2CC12CCN(c1cnc3c(-c4ccncc4F)n[nH]c3n1)CC2 [Example 75] cannot be ordered by IC50: at most 50 nM for the first, at most 50 nM for the second.

Nc1nccc(-c2n[nH]c3nc(N4CCC5(CC4)Cc4ccccc4[C@@H]5N)cnc23)c1F [Example 77, (R)-1′-(3-(2-amino-3-fluoropyridin-4-yl)-1H-pyrazolo[3,4-b]pyrazin-6-yl)-1,3-dihydrospiro[indene-2,4′-piperidin]-1-amine] and Nc1nccc(-c2n[nH]c3nc(N4CCC5(CC4)Cc4ccccc4[C@H]5N)cnc23)c1F [Example 78, (S)-1′-(3-(2-amino-3-fluoropyridin-4-yl)-1H-pyrazolo[3,4-b]pyrazin-6-yl)-1,3-dihydrospiro[indene-2,4′-piperidin]-1-amine] cannot be ordered by IC50: at most 50 nM for the first, at most 50 nM for the second.

Nc1nccc(Sc2cnc(N3CCC4(CC3)Cc3ccccc3[C@H]4N)cn2)c1Cl [Example 81, (S)-1′-(5-((2-amino-3-chloropyridin-4-yl)thio)pyrazin-2-yl)-1,3-dihydrospiro[indene-2,4′-piperidin]-1-amine] and Cc1nc(Sc2ccnc(N)c2Cl)cnc1N1CCC2(CC1)Cc1ccccc1[C@H]2N [Example 84, (S)-1′-(5-((2-amino-3-chloropyridin-4-yl)thio)-3-methylpyrazin-2-yl)-1,3-dihydrospiro[indene-2,4′-piperidin]-1-amine] cannot be ordered by IC50: at most 50 nM for the first, at most 50 nM for the second.

Nc1nccc(Sc2n[nH]c3nc(N4CCC5(CC4)Cc4ccccc4[C@H]5N)cnc23)c1Cl [Example 86, (S)-1′-(3-((2-amino-3-chloropyridin-4-yl)thio)-1H-pyrazolo[3,4-b]pyrazin-6-yl)-1,3-dihydrospiro[indene-2,4′-piperidin]-1-amine] and Cc1nccc(Sc2n[nH]c3nc(N4CCC5(CC4)Cc4ccccc4[C@H]5N)cnc23)c1Cl [Example 90] cannot be ordered by IC50: at most 50 nM for the first, 50 to 1000 nM for the second.

N[C@@H]1c2ccccc2CC12CCN(c1nc3[nH]nc(Sc4ccnc(Cl)c4Cl)c3nc1CO)CC2 [Example 88] and Cc1nccc(Sc2n[nH]c3nc(N4CCC5(CC4)Cc4ccccc4[C@H]5N)c(CO)nc23)c1Cl [Example 89] cannot be ordered by IC50: at most 50 nM for the first, at most 50 nM for the second.
